Tested on: PBL
Assay: cells
Conditions: Homo sapiens, Blood
Description: 50% inhibition of T-cell proliferation induced by anti-CD3/anti-CD28 co-stimulation in human peripheral blood leukocytes (PBLs).

Row | Compound | IC50
1 | COc1cc2nc(Nc3c(C)cccc3C)c3cncn3c2cc1OC | 1100 nM
2 | Cc1cccc(Cl)c1Nc1nc2ccc(N3CCN(C=O)CC3)cc2n2cncc12 | 530 nM
3 | COc1ccc2nc(Nc3c(C)cccc3Cl)c3cncn3c2c1 | 1400 nM
4 | Cc1cccc(Cl)c1Nc1nc2ccc(NCCN(C)C)cc2n2cncc12 | 880 nM
5 | Cc1cccc(Cl)c1Nc1nc2cc(NCCCN(C)C)ccc2n2cncc12 | 480 nM
6 | Cc1cccc(Cl)c1Nc1nc2ccc(NCCCN3CCOCC3)cc2n2cncc12 | 760 nM
7 | Cc1cccc(Cl)c1Nc1nc2ccc(N3CCN(C)CC3)cc2n2cncc12 | 240 nM
8 | Cc1cccc(Cl)c1Nc1nc2ccc(N3CC(C)NC(C)C3)cc2n2cncc12 (configuration not stated) | 340 nM
9 | COc1cc2nc(Nc3c(C)cccc3Cl)c3cncn3c2cc1OC | 670 nM
10 | COc1ccc2c(c1)nc(Nc1c(C)cccc1Cl)c1cncn12 | 2600 nM
11 | Cc1cccc(Cl)c1Nc1nc2ccc(NCCN3CCOCC3)cc2n2cncc12 | 1300 nM
12 | COc1cc2c(cc1NCCN(C)C)nc(Nc1c(C)cccc1Cl)c1cnc(C)n12 | 130 nM
13 | Cc1cccc(Cl)c1Nc1nc2cc(N3CCNCC3)ccc2n2cncc12 | 1000 nM
14 | CCNc1ccc2nc(Nc3c(C)cccc3Cl)c3cncn3c2c1 | 2200 nM
15 | CCN(CC)c1ccc2c(c1)nc(Nc1c(C)cccc1Cl)c1cncn12 | 1700 nM
16 | Cc1cccc(Cl)c1Nc1nc2cc(N3CC(C)NC(C)C3)ccc2n2cncc12 (configuration not stated) | 570 nM
17 | Cc1cccc(Cl)c1Nc1nc2ccc(N(C)C)cc2n2cncc12 | 2000 nM
18 | COc1cc2c(cc1NCCN(C)C)nc(Nc1c(C)cccc1Cl)c1cncn12 | 190 nM
19 | Cc1cccc(Cl)c1Nc1nc2cc(N3CCOCC3)ccc2n2cncc12 | 1000 nM

Row | Compound | IC50
20 | CC(=O)Nc1ccc2nc(Nc3c(C)cccc3Cl)c3cncn3c2c1 | 1400 nM
21 | Cc1cccc(Cl)c1Nc1nc2ccc(N3CCNCC3)cc2n2cncc12 | 380 nM
22 | COc1cccc2nc(Nc3c(C)cccc3Cl)c3cncn3c12 | 2300 nM
23 | CCN1CCN(c2ccc3nc(Nc4c(C)cccc4Cl)c4cncn4c3c2)CC1 | 270 nM
24 | Cc1cccc(Cl)c1Nc1nc2cc3c(cc2n2cncc12)OCO3 | 2000 nM
25 | COc1cc2nc(Nc3c(C)cccc3Cl)c3cncn3c2cc1N1CC(C)NC(C)C1 (configuration not stated) | 760 nM
26 | Cc1cccc(Cl)c1Nc1nc2cc(NCCN(C)C)ccc2n2cncc12 | 520 nM
27 | COc1cc2c(cc1NCCN(C)C)nc(Nc1c(F)cccc1Cl)c1cncn12 | 240 nM
28 | Cc1cccc(Cl)c1Nc1nc2cc(O)c(O)cc2n2cncc12 | > 9000 nM
29 | COc1cc2c(cc1NCCN1CCOCC1)nc(Nc1c(C)cccc1Cl)c1cncn12 | 280 nM
30 | Cc1cccc(Cl)c1Nc1nc2cc3c(cc2n2cncc12)OCCO3 | 2200 nM
31 | CCN(CC)c1ccc2nc(Nc3c(C)cccc3Cl)c3cncn3c2c1 | 2600 nM
32 | Brc1ccccc1Nc1nc2ccccc2n2cncc12 | 17000 nM
33 | Cc1cccc(Cl)c1Nc1nc2cc(N3CCN(C)CC3)ccc2n2cncc12 | 720 nM
34 | Cc1cccc(Cl)c1Nc1nc2ccc(N3CCOCC3)cc2n2cncc12 | 780 nM
35 | COc1cc2c(cc1OCCN1CCOCC1)nc(Nc1c(C)cccc1Cl)c1cncn12 | 470 nM
36 | Cc1cccc(Cl)c1Nc1nc2ccc(N3CCCN(C)CC3)cc2n2cncc12 | 540 nM
37 | Cc1cccc(Cl)c1Nc1nc2ccc(N)cc2n2cncc12 | 1600 nM

Reference: ChEMBL document CHEMBL1136039, “Synthesis and SAR of novel imidazoquinoxaline-based Lck inhibitors: improvement of cell potency” (Bioorg Med Chem Lett, 2002)
